The record followed here is ChEMBL document CHEMBL1201862, “PubChem BioAssay data set” (2004).

Targets include Cytochrome P450 2D6 (Homo sapiens, UniProt P10635); Cytochrome P450 3A4 (Homo sapiens, UniProt P08684); Cytochrome P450 2C9 (Homo sapiens, UniProt P11712).
Another series concerns the target fMet-Leu-Phe receptor (Homo sapiens, UniProt P21462). In words: formyl peptide receptor binders – dose response (AID 519). It is filed as functional.
Series [1] deals with Beta-lactamase (Salmonella choleraesuis (strain SC-B67), UniProt Q5J463).
The next series concerns the target Keap1/Nrf2 (Homo sapiens, UniProt Q14145). In words: disruptors of Keap1 binding to Nrf2 peptide – biochemical, fluorescence polarization, cherry-picked samples, dose response (AID 588683). A general note: Fluorescence polarisation rises when a labelled molecule tumbles more slowly, as on binding a larger partner.
The target of series [2] is UDP-galactopyranose mutase (Mycobacterium tuberculosis, UniProt P9WIQ1). In words: Inhibitors of Mycobacterium tuberculosis UDP-galactopyranose mutase (UGM) enzyme Measured in Biochemical System Using Plate Reader - 2105-02_Inhibitor_Dose_CherryPick_Activity. [Related pubchem assays (depositor defined):AID504439].
For series [3], the target named is T1, Voltage-gated N-type calcium channel alpha-1B subunit/Amyloid beta A4 precursor protein-binding family A member 1 (Homo sapiens, UniProt Q00975+Q02410). In kind it is protein assay.
For series [4], the target named is Beta-lactamase (Pseudomonas aeruginosa, UniProt Q79MP6).
For series [5], the target named is T1, Voltage-gated N-type calcium channel alpha-1B subunit/Amyloid beta A4 precursor protein-binding family A member 1. It is filed as protein assay. This is another data set of the same source.
A further series addresses T2, ORF 73 (Human herpesvirus 8, UniProt O40947).
T2 sequence (O40947 whole entry): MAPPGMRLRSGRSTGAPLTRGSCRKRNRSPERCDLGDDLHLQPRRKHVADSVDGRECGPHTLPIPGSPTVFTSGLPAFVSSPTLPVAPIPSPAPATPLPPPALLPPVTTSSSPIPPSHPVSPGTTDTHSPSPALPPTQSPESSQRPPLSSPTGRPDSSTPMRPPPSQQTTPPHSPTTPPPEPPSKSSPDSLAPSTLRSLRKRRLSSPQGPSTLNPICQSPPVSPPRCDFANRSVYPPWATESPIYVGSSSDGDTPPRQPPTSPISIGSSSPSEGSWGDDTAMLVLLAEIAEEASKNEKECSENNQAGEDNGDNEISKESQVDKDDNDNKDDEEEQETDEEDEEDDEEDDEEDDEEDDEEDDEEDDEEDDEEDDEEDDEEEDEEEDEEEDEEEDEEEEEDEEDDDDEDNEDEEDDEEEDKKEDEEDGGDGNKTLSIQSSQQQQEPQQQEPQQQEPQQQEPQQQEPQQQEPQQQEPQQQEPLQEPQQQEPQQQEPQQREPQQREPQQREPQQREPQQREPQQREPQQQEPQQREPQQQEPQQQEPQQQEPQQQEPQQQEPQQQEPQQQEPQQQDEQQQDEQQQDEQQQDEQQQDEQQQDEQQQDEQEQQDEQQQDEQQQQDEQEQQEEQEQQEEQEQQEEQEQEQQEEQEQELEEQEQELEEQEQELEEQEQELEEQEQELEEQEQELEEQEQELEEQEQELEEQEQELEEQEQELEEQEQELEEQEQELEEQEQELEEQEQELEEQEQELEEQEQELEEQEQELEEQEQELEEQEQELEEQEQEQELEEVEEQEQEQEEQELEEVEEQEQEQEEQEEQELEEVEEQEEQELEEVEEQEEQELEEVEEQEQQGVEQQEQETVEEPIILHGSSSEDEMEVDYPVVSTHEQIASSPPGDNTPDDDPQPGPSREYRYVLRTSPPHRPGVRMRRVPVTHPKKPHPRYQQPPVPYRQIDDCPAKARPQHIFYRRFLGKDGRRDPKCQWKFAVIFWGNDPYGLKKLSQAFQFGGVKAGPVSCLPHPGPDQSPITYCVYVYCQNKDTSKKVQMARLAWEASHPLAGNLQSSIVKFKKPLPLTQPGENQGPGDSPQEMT
In words: KSHV LANA DNA-binding disruption – biochemical, fluorescence polarization, cherry-picked samples, dose response (AID 504725).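 Further: fluorescence polarization of a labeled DNA duplex reporting LANA DNA binding; potency is for inhibitors that block LANA binding to the DNA.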 On the set-up: species or system Human gammaherpesvirus 8.

The target in another series is Cytochrome P450 2C19 (Homo sapiens, UniProt P33261). Put plainly: Cytochrome panel assay with activity outcomes. Panel member name: p450-cyp2c19 Compounds with AC50 equal or less than 10 uM are considered active. It is filed as functional. The conditions noted are these: read-out: AC50.
In the next series the target is T3, Cytochrome P450 1A2 (Homo sapiens, UniProt P05177).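 Further: PubChem cytochrome P450 panel assay, CYP1A2 panel member.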
T3 sequence (P05177 whole entry): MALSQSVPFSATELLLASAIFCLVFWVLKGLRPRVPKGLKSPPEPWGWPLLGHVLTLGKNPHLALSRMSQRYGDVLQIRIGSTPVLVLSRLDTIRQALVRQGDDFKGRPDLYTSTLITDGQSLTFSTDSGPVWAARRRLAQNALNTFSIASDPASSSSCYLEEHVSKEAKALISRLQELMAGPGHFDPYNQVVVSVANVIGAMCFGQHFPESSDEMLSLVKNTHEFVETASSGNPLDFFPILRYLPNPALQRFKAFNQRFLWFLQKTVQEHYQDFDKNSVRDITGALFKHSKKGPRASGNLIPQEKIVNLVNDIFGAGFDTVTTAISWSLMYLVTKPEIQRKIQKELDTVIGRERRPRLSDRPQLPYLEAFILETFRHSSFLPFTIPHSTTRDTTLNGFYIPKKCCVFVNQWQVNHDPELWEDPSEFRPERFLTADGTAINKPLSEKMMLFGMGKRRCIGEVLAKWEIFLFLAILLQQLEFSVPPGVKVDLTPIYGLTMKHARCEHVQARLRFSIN

Series [6] can be described thus: restored growth of temperature-sensitive Burl-1 yeast – whole organism, S. cerevisiae, Burl-1 ts mutant, luminescence, counter-screen for SUMOylation pathway inhibitor project, dose response (AID 463199). In kind it is functional.
The nature of series [7]: NIH-3T3 fibroblast cytotoxicity, dose response, cytotoxicity control, cell-based, fluorescence, Alamar Blue, secondary assay (AID 2327).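 Further: NIH-3T3 mouse fibroblasts cultured with fluconazole at 8 µg/mL.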 In kind it is functional. For orientation: Alamar Blue is a resazurin reagent that responds to reducing activity.
Series [8] can be described thus: MIN6 cell viability loss – mouse insulinoma, cytotoxicity control, dose response (AID 2122).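 Further: confirmatory high-throughput counterscreen run to flag cytotoxic compounds.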 In kind it is functional.
In series [9] the target is ATP-dependent molecular chaperone HSP82 (Candida albicans (strain WO-1) (Yeast), UniProt C4YTQ8). In words: steroid-induced GRE reporter decrease in yeast – S. cerevisiae, luminescence, Hsp90 inhibitor project, dose response (AID 2400).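 Further: beta-galactosidase luminescence from glucocorticoid response element reporter as proxy for Hsp90 function; inhibitor potency where signal loss means Hsp90 inhibition.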 It is filed as functional, cell-based.
For series [10], the target named is T4, Serine/threonine-protein phosphatase (Candida dubliniensis (strain CD36 / CBS 7987 / NCPF 3949 / NRRLY-17841) (Yeast), UniProt B9W6M3).
T4 sequence (B9W6M3 whole entry): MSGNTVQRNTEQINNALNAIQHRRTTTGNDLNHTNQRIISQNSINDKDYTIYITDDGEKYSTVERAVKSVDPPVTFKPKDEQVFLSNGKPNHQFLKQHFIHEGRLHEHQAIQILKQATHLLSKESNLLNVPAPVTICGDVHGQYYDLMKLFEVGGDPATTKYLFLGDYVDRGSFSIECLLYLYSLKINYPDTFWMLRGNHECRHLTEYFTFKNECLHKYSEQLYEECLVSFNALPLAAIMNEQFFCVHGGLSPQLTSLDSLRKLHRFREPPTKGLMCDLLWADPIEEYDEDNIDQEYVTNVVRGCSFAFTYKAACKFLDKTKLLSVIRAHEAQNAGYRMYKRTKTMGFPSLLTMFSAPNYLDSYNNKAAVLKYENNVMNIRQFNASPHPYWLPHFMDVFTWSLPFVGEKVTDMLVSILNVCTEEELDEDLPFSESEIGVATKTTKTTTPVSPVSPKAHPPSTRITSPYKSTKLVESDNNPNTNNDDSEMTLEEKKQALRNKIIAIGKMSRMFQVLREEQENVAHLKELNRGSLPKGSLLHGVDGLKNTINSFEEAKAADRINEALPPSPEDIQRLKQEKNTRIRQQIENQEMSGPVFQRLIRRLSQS
In words: blockers of CaCl2-induced CDRE-lacZ signaling – S. cerevisiae, luminescence, secondary, dose response (AID 2388).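 Further: yeast reporter cells carrying a calcineurin-responsive lacZ construct stimulated with calcium chloride; luminescent beta-galactosidase reporter signal in whole cells rather than isolated phosphatase activity; potency for inhibition where a drop in reporter signal means calcineurin blockade.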 In kind it is functional, cell-based.

Series [11] is described as follows: fluconazole-exposed Candida albicans growth modulators – fluorescence, retest, confirmation (AID 2467). It is filed as functional, cell-based.
The test system of another series is INS1. Put plainly: INS-1E survival protection against cytokine death – cell-based, luminescence, retest, dose response (AID 449756).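 Further: cell death triggered by IL-1 beta plus TNF-alpha plus IFN-gamma mixture; protective hits raise ATP signal compared with cytokine alone wells.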 It is filed as functional. The conditions noted are these: Rattus norvegicus.
Series [12] is described as follows: decrease of insulin promoter-GFP reporter – imaging, high-content screening, mouse beta cells (AID 1628). In kind it is functional. Conditions: MIN6.
For series [13], the target named is T5, Alkaline phosphatase, tissue-nonspecific isozyme (Homo sapiens, UniProt P05186).
T5 sequence (P05186 whole entry): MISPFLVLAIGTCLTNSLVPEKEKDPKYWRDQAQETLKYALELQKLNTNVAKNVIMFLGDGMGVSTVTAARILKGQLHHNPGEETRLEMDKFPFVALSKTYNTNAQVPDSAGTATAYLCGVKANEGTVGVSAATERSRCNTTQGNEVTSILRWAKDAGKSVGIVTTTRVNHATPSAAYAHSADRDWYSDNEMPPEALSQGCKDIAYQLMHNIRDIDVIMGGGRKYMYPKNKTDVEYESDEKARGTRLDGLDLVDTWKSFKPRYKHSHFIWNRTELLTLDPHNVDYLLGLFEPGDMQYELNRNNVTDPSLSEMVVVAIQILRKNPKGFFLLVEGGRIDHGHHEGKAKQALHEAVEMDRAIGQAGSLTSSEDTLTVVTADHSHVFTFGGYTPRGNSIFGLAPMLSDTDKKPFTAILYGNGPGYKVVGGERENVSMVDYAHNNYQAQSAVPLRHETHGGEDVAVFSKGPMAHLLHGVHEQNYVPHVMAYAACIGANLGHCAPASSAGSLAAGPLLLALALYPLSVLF
In words: activation of tissue-nonspecific alkaline phosphatase – biochemical, TNAP isozyme, human IAP uHTS hits, selectivity assay for human IAP activator project, dose response (AID 488886).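 Further: potency of compounds raising TNAP activity as a selectivity check on IAP activators.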 In kind it is functional.

Series [14] addresses Intestinal-type alkaline phosphatase (Mus musculus, UniProt P24822). Put plainly: PubChem AID 488874. In kind it is functional.
In series [15] the target is T6, Intestinal-type alkaline phosphatase (Homo sapiens, UniProt P09923). In words: activation of human intestinal alkaline phosphatase – biochemical, luminescent, uHTS hits, set 2, dose response (AID 488817).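 Further: potency of activators that raise enzyme activity.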 It is filed as functional.
Series [16] has as its target T6, Intestinal-type alkaline phosphatase. In words: human intestinal alkaline phosphatase activators, dose response, biochemical, luminescence, uHTS hits (AID 463120). It is filed as functional.

Activity calls are given as the source filed them.

T6 sequence (P09923 whole entry): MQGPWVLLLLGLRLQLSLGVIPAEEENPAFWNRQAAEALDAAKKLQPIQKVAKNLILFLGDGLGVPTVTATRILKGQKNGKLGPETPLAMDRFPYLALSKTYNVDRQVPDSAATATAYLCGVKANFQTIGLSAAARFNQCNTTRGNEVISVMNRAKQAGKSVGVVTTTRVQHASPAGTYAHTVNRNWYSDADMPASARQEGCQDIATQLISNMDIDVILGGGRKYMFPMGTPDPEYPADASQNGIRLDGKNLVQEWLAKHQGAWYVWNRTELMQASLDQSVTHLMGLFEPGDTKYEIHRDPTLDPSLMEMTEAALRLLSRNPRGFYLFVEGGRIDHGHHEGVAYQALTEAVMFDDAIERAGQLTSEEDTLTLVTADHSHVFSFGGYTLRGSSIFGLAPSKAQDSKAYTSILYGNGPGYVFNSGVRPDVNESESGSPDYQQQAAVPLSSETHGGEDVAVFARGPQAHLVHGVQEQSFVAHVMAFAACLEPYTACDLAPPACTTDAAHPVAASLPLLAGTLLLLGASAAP
T1 sequence (Q00975 whole entry): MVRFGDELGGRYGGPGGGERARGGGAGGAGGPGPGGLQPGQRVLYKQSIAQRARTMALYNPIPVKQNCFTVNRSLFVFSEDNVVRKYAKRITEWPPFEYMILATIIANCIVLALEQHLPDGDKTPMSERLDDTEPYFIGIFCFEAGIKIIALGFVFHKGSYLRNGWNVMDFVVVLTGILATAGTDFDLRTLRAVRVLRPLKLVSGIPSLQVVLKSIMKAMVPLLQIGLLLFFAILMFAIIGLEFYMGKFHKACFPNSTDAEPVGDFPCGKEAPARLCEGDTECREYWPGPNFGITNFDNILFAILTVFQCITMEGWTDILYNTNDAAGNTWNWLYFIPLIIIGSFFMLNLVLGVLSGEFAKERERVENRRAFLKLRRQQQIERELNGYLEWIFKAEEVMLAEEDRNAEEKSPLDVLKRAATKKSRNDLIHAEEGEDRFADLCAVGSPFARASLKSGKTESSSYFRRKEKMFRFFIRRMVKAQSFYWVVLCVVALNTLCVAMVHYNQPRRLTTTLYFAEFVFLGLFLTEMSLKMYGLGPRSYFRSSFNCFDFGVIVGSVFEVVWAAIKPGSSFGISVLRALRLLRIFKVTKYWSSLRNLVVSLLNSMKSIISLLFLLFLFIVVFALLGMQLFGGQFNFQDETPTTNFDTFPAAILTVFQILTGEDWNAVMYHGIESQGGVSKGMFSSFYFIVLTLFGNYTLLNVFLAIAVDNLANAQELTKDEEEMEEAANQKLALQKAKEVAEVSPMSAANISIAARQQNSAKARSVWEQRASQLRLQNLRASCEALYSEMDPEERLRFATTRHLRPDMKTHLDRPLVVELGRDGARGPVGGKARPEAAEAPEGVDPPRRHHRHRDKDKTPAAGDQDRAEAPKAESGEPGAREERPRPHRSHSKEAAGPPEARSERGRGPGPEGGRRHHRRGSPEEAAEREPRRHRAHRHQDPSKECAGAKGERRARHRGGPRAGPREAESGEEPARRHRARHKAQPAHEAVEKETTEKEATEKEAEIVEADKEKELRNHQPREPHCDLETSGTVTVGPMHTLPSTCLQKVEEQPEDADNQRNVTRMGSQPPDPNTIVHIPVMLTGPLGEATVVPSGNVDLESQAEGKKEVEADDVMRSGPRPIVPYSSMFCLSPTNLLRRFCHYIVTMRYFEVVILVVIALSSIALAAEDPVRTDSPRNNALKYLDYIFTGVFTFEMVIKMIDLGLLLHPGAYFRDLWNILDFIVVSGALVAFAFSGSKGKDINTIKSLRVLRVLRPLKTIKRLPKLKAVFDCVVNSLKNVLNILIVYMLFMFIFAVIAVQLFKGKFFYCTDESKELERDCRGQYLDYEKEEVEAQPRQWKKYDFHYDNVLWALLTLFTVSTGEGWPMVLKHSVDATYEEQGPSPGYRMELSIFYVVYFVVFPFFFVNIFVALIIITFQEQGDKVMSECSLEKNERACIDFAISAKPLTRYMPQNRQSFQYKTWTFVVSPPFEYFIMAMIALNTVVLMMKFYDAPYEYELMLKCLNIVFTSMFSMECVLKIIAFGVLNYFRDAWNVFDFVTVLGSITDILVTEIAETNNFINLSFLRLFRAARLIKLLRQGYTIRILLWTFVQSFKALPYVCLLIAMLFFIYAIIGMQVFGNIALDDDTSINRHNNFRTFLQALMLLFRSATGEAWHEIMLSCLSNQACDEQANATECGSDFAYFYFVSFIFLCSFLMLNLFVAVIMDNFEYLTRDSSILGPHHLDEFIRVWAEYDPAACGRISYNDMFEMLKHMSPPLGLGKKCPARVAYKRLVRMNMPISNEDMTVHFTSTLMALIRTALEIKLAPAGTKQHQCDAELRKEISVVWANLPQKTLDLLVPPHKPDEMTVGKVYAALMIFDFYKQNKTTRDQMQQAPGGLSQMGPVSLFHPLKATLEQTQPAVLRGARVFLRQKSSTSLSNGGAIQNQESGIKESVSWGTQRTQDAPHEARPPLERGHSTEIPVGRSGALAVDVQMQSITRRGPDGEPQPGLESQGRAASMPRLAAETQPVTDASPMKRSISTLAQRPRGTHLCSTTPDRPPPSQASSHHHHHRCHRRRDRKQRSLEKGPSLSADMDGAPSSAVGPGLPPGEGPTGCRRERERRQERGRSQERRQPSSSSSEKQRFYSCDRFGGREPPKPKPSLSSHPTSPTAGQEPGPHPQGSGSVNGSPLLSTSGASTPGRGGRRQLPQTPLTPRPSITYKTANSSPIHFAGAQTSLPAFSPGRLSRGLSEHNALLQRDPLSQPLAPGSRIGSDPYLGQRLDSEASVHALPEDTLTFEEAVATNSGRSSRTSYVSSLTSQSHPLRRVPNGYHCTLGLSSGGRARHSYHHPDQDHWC
T1 sequence (Q02410 whole entry): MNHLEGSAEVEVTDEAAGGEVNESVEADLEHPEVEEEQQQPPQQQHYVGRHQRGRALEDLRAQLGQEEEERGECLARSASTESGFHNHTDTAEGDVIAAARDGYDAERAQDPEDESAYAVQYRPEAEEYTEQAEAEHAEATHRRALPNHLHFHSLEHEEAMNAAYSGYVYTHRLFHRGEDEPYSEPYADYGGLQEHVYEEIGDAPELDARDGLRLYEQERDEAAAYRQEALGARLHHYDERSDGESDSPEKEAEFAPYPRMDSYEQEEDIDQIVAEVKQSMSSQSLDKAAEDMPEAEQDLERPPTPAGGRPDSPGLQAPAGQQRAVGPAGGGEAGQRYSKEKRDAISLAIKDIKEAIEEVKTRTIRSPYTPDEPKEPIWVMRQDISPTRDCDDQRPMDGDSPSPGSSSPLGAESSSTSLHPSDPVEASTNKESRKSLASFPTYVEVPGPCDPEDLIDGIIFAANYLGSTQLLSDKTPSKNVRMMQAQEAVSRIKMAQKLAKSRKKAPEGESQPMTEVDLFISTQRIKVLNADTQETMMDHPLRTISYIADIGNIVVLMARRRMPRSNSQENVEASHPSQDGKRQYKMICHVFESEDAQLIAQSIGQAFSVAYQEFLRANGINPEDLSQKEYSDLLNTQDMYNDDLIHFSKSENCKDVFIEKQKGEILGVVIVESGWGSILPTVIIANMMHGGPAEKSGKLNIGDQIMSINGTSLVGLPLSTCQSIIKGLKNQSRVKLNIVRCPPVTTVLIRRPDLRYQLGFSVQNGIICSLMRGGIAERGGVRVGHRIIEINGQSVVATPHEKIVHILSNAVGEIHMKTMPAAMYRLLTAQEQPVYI
Chain of Cytochrome P450 3A4 (P08684 whole entry): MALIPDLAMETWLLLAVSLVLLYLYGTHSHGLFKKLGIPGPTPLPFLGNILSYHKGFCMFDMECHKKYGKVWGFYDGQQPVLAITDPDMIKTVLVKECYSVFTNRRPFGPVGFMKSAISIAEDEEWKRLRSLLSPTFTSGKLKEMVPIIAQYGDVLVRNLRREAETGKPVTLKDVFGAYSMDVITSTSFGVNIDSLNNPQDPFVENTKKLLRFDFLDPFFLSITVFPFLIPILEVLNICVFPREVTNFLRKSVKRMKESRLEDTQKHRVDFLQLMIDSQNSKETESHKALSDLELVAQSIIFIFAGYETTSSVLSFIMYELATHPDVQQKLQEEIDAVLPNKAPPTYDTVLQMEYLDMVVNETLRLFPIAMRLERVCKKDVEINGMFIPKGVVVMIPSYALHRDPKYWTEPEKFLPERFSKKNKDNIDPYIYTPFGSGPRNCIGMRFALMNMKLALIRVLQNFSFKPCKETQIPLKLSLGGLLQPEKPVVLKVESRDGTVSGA
Chain of Beta-lactamase (Pseudomonas aeruginosa, UniProt Q79MP6) (Q79MP6 whole entry): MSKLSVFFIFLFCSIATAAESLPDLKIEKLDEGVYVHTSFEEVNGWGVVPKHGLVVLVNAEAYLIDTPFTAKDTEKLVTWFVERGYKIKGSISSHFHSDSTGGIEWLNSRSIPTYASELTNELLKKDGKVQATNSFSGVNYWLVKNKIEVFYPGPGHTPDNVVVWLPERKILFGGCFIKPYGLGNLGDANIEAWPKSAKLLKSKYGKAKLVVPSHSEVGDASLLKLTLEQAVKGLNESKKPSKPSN
Chain of Beta-lactamase (Salmonella choleraesuis (strain SC-B67), UniProt Q5J463) (Q5J463 whole entry): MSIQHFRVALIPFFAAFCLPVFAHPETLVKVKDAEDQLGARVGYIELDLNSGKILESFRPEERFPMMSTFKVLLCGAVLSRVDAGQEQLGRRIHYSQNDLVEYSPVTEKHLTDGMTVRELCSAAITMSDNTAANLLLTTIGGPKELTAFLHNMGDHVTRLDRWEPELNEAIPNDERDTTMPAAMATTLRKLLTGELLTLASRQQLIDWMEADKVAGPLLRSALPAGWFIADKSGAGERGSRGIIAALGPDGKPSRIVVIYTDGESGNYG
Chain of fMet-Leu-Phe receptor (P21462 whole entry): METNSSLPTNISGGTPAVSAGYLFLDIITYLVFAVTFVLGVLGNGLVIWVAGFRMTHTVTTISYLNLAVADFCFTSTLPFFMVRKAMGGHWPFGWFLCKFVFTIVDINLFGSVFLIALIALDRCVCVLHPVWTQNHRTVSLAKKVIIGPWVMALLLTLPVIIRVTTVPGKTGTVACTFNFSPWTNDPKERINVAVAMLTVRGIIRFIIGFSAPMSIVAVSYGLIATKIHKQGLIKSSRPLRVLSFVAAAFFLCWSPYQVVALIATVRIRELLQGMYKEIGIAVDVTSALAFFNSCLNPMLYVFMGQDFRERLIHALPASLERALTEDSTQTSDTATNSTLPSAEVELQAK

Take `Cc1c(C(=O)NC2CCCc3ccccc32)oc2ccc(S(=O)(=O)N3CCOCC3)cc12` (stereo not given): the Ki at fMet-Leu-Phe receptor was 37 µM (inactive). In addition, the AC50 entry on Cytochrome P450 2D6 and on Cytochrome P450 3A4 was “inconclusive” each time.

As to `CCCCn1c(=O)[nH]c2nc3cc(N)ccc3nc2c1=O`, the IC50 at Beta-lactamase [1] is 7.87 µM (active); in series [3], 19.1 µM (active); on Beta-lactamase [4], 20.7 µM (inactive); in [5] it was > 50 µM (inactive). Moreover, the values for the AC50 (at Keap1/Nrf2; in [2]; on ORF 73) were 3.52 µM (active), 2.42 µM (active) and 2.4 µM (active), respectively.

Regarding `CCOC(=O)N1CCN(Cc2nc3c(c(=O)[nH]c(=O)n3C)n2Cc2ccccc2C)CC1`, the AC50 on Cytochrome P450 2C19 is 20 µM (inconclusive); at Cytochrome P450 1A2, “inconclusive”; at Cytochrome P450 2C9, 35.5 µM (inconclusive).

As to `CCC1SC2=NC(C)=C(C(=O)OCCOC)C(c3ccc(C(=O)OC)cc3)N2C1=O` (stereo not given), the AC50 in series [6] was 50.8 µM (active).

For `CCCCCCC[n+]1ccc(-c2cc[n+](CCCCCCC)cc2)cc1`, the EC50 is 64.9 µM (active) in series [7], > 160 µM (inactive) in series [9], > 180 µM (inactive) in series [10] and 0.055 µM (active) in series [11]. The IC50 in series [8] was 3.65 µM (active); in series [12] it was 2.74 µM (active). For the same molecule, in the series with INS1, the AC50 is 0.22 µM (active).

Take `CCC(C)(C)C1CCc2n[nH]c(C(=O)N/N=C(\C)c3ccco3)c2C1` (stereo not given): the EC50 in series [13] was 34.9 µM (active); in series [15], 33 µM (active); in series [16], 8.06 µM (active). Also, the IC50 in series [14] is > 100 µM (inactive).

The Ki is a dissociation constant, usually derived from enzyme kinetics or from competition with a known ligand. As a reminder, the AC50 is the concentration giving half of the maximal activity seen. The term IC50 denotes the concentration needed to halve the response being measured. In general, EC50 refers to the concentration needed to bring the measured effect to its halfway point.
